Results: US20240246946A1, “MODULATORS OF TREX1” (Constellation Pharmaceuticals, Inc., priority 2021, published 2024)

Assays:
[1] = target: T1, human TREX2 (residues M44-A279) (Homo sapiens, UniProt Q9BQ50); assay: hTREX2 Biochemical Assay (fluorescence, dsDNA substrate degradation); details: biochemical selectivity for hTREX1 vs hTREX2
T1 construct: human TREX2 (residues M44-A279, expressed in E. coli); made in house; host or cells: E. coli
T1 sequence (Q9BQ50 44-279 isoform Q9BQ50-1): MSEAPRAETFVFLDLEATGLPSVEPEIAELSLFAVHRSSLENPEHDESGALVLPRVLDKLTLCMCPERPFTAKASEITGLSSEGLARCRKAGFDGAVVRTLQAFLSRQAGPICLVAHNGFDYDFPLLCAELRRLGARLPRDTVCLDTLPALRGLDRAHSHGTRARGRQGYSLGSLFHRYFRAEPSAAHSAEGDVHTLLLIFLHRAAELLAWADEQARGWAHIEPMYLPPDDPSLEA
Method: Degradation of the dsDNA liberates free fluorophore to produce a fluorescent signal. Specifically, 7.5 μL of N-terminally His-Tev tagged human TREX2 (residues M44-A279, expressed in E. coli and purified in house) in reaction buffer (50 mM Tris, 150 mM NaCl, 2 mM DTT, 0.1 mg/mL BSA, 0.01% (w/v) Tween-20, 5 mM MgCl2, pH 7.4) was added to a 384-well Black ProxiPlate Plus (PerkinElmer) which already contained compound (150 nL) at varying concentrations as a 10 point dose-response in DMSO. The plate was incubated at 25° C. for 4 hours. Reactions were initiated by adding 7.5 μL of dsDNA substrate (Strand A: 5′ TEX615/GCT AGG CAG 3′; Strand B: 5′ CTG CCT AGC/IAbRQSp (IDT)) in reaction buffer. Final concentrations were 50 pM TREX2, 60 nM dsDNA substrate in reaction buffer with 1.0% DMSO (v/v). After 18 hours at 25° C., reactions were quenched by the addition of 2 μL of 500 mM EDTA. Final concentrations in the quenched reaction mixture were 44 pM TREX2, 53 nM DNA and 59 mM EDTA in a volume of 17 μL. After a 5-minute incubation at room temperature, plates were read in an EnVision plate reader (PerkinElmer) measuring fluorescence at 615 nm following excitation w/570 nm light.

[2] = target: T2, full length mouse TREX1 (Mus musculus, UniProt Q91XB0); assay: mTREX1 Biochemical Assay (fluorescence, dsDNA substrate degradation); details: biochemical, read-out: mTREX1 IC50
T2 construct: N-terminally His-Tev tagged full length mouse TREX1; made in house; host or cells: E. coli
T2 sequence (Q91XB0 1-314): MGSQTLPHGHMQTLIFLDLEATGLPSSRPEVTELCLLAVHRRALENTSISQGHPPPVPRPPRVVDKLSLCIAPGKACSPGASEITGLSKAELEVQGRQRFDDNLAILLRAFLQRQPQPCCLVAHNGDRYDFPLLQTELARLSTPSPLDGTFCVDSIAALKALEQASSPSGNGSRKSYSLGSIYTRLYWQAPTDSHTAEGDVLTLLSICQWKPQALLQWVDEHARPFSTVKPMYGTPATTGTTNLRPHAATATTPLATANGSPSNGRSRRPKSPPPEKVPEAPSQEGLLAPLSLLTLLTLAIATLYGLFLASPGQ
In short: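 Reaction run 18 h at 25° C. with 60 nM TEX615/quencher-labelled dsDNA and 6 pM mouse TREX1 in Tris buffer (pH 7.4, 5 mM MgCl2, 1.0% DMSO), enzyme having sat 4 h with compound across 10 concentrations. EDTA quench; substrate degradation measured as fluorescence increase.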

[3] = target: T3, full length human TREX1 (Homo sapiens, UniProt Q9NSU2); assay: hTREX1 Biochemical Assay (fluorescence, dsDNA substrate degradation); details: biochemical, read-out: hTREX1 IC50
T3 construct: N-terminally His-Tev tagged full length human TREX1; made in house; host or cells: E. coli
T3 sequence (Q9NSU2 1-314): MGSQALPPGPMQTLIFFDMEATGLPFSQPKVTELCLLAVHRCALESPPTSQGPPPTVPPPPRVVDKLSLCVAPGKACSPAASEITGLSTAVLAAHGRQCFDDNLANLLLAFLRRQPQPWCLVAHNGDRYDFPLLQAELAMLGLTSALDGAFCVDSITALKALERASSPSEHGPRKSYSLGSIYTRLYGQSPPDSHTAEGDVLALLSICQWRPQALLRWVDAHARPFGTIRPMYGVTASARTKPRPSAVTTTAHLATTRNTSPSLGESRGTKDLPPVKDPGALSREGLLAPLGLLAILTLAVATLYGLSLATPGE
In short: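 Fluorescence rises as enzyme degrades a quenched TEX615-labelled dsDNA substrate (60 nM) in 50 mM Tris, 150 mM NaCl, 5 mM MgCl2, pH 7.4. Full-length His-Tev-tagged human TREX1, 4 pM, sits with compound 4 hours at 25° C before substrate; reaction 18 hours, stopped with EDTA.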

SMILES	hTREX1 vs hTREX2 selectivity [1]	IC50 [2]	IC50 [3]
Cc1ncc(C(c2ccccc2C#N)C(C)c2nc(C(=O)Nc3cnoc3)c(O)c(=O)n2C)nc1C (single isomer, unassigned) [Example 81 D2E2]	B (B = 25 to 50-fold selective for hTREX1)	> 10 nM	> 10 nM
CC(c1nc(C(=O)Nc2cnoc2)c(O)c(=O)n1C)C(c1cnn(CC(F)(F)F)c1)c1ccccc1C#N (single isomer, unassigned) [Example 22 D2E1]	B (B = 25 to 50-fold selective for hTREX1)	> 10 nM	> 10 nM
CC(c1nc(C(=O)Nc2cnoc2)c(O)c(=O)n1C)C(c1cnn(CC(C)(C)O)c1)c1cc(F)ccc1Cl (single isomer, unassigned) [Example 92 D1E2]	A (A = <25 fold selective for hTREX1)	> 10 nM	1 to 10 nM
CCn1cc(C(c2ccc(F)cc2C#N)C(C)c2nc(C(=O)Nc3cnoc3)c(O)c(=O)n2C)c(C)n1 (single isomer, unassigned) [Example 55 D2E2]	C (C = >50 fold selective for hTREX1)	> 10 nM	1 to 10 nM
Cc1cc(C(c2cc(F)ccc2C#N)C(C)c2nc(C(=O)Nc3cnoc3)c(O)c(=O)n2C)n(C)n1 (single isomer, unassigned) [Example 111 D2E2]	A (A = <25 fold selective for hTREX1)	> 10 nM	> 10 nM
CC(c1nc(C(=O)Nc2cnoc2)c(O)c(=O)n1C)C(c1cnn(CC(F)F)c1)c1cc(F)ccc1C#N (single isomer, unassigned) [Example 102 D1E1]	A (A = <25 fold selective for hTREX1)	> 10 nM	> 10 nM
Cc1nn(C)c(C)c1C(c1cc(F)ccc1C#N)C(C)c1nc(C(=O)Nc2cnoc2)c(O)c(=O)n1C (single isomer, unassigned) [Example 109 D1E2]	A (A = <25 fold selective for hTREX1)	> 10 nM	> 10 nM
CC(c1nc(C(=O)Nc2cnoc2)c(O)c(=O)n1C)C(c1cnn(C)c1)c1ccc(O)cc1C#N (single isomer, unassigned) [Example 80 D2E2]	B (B = 25 to 50-fold selective for hTREX1)	> 10 nM	1 to 10 nM
COCCn1nc(C)c(C(c2cc(F)ccc2C#N)C(C)c2nc(C(=O)Nc3cnoc3)c(O)c(=O)n2C)c1C (single isomer, unassigned) [Example 110 D1E2]	A (A = <25 fold selective for hTREX1)	> 10 nM	> 10 nM
Cc1cnc(C)c(C(c2cc(F)ccc2C#N)C(C)c2nc(C(=O)Nc3cnoc3)c(O)c(=O)n2C)n1 (single isomer, unassigned) [Example 119 DIE1]	C (C = >50 fold selective for hTREX1)	1 to 10 nM	< 1 nM
CC(c1nc(C(=O)Nc2cnoc2)c(O)c(=O)n1C)C(c1cnn(CC2COC2)c1)c1cc(F)ccc1Cl (single isomer, unassigned) [Example 94 D1E2]	A (A = <25 fold selective for hTREX1)	> 10 nM	> 10 nM
CC(c1nc(C(=O)Nc2cnoc2)c(O)c(=O)n1C)C(c1ccccc1)c1cccnc1C#N (single isomer, unassigned) [Example 155 D1E1]	B (B = 25 to 50-fold selective for hTREX1)	> 10 nM	> 10 nM
CC(c1nc(C(=O)Nc2cnoc2)c(O)c(=O)n1C)C(c1cnn(CCOC(F)(F)F)c1)c1cc(F)ccc1C#N (single isomer, unassigned) [Example 101 D1E1]	A (A = <25 fold selective for hTREX1)	> 10 nM	> 10 nM

The next lines start with the values.

hTREX1 vs hTREX2 selectivity [1]	IC50 [2]	IC50 [3]	SMILES
A (A = <25 fold selective for hTREX1)	> 10 nM	> 10 nM	CC(c1nc(C(=O)Nc2cnoc2)c(O)c(=O)n1C)C(c1cnn(C(F)(F)F)c1)c1ccccc1C#N (single isomer, unassigned) [Example 151 D1E2]
A (A = <25 fold selective for hTREX1)	> 10 nM	> 10 nM	CC(c1nc(C(=O)Nc2cnoc2)c(O)c(=O)n1C)C(c1ccccc1Cl)n1cccn1 (single isomer, unassigned) [Example 45 D1E2]
A (A = <25 fold selective for hTREX1)	> 10 nM	> 10 nM	CC(c1nc(C(=O)Nc2cnoc2)c(O)c(=O)n1C)C(c1ccccc1Cl)n1cnc2ccccc21 (single isomer, unassigned) [Example 143 D1E2]
A (A = <25 fold selective for hTREX1)	> 10 nM	> 10 nM	CC(c1nc(C(=O)Nc2cnoc2)c(O)c(=O)n1C)C(c1ccccc1Cl)n1cc(C(F)(F)F)cn1 (single isomer, unassigned) [Example 139 D1E2]
A (A = <25 fold selective for hTREX1)	> 10 nM	> 10 nM	Cc1ccn(C(c2ccccc2C#N)C(C)c2nc(C(=O)Nc3cnoc3)c(O)c(=O)n2C)n1 (single isomer, unassigned) [Example 132 D1E1]
A (A = <25 fold selective for hTREX1)	> 10 nM	> 10 nM	CCn1cc(C(c2ccccc2Cl)C(C)c2nc(C(=O)Nc3cnoc3)c(O)c(=O)n2C)cn1 (single isomer, unassigned) [Example 85 D2E2]
A (A = <25 fold selective for hTREX1)	> 10 nM	> 10 nM	Cc1ccnn1C(c1ccccc1C#N)C(C)c1nc(C(=O)Nc2cnoc2)c(O)c(=O)n1C (single isomer, unassigned) [Example 138 D1E2]
A (A = <25 fold selective for hTREX1)	> 10 nM	> 10 nM	CC(c1nc(C(=O)Nc2cnoc2)c(O)c(=O)n1C)C(c1ccccc1Cl)c1cnn(C)c1C#N (single isomer, unassigned) [Example 96 D1E2]
C (C = >50 fold selective for hTREX1)	> 10 nM	> 10 nM	CC(c1nc(C(=O)Nc2cnoc2)c(O)c(=O)n1C)C(c1cocn1)c1ccccc1C#N (single isomer, unassigned) [Example 50 D2E1]
A (A = <25 fold selective for hTREX1)	> 10 nM	> 10 nM	Cc1ncc(C(c2ccccc2Cl)C(C)c2nc(C(=O)Nc3cnoc3)c(O)c(=O)n2C)nc1C (single isomer, unassigned) [Example 125 D1E1]
A (A = <25 fold selective for hTREX1)	> 10 nM	> 10 nM	Cc1nnc(C(c2ccccc2Cl)C(C)c2nc(C(=O)Nc3cnoc3)c(O)c(=O)n2C)o1 (single isomer, unassigned) [Example 156 D1E2]
A (A = <25 fold selective for hTREX1)	> 10 nM	> 10 nM	CC(c1nc(C(=O)Nc2cnoc2)c(O)c(=O)n1C)C(c1cnn(CC(C)(C)O)c1)c1ccccc1Cl (single isomer, unassigned) [Example 86 D2E2]
